Active and inactive are the calls of the source.
Columns and labels:
SN12K1 = experiment: cells; type: functional; conditions: Homo sapiens
P388 = experiment: cells; type: functional; conditions: Mus musculus
P388/ADR = experiment: cells; type: functional; conditions: Mus musculus
Cytochrome P450 1A2 = target: T1, Cytochrome P450 1A2 (Homo sapiens, UniProt P05177);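 further: PubChem cytochrome P450 panel assay, CYP1A2 panel member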
T1 sequence (P05177 whole entry): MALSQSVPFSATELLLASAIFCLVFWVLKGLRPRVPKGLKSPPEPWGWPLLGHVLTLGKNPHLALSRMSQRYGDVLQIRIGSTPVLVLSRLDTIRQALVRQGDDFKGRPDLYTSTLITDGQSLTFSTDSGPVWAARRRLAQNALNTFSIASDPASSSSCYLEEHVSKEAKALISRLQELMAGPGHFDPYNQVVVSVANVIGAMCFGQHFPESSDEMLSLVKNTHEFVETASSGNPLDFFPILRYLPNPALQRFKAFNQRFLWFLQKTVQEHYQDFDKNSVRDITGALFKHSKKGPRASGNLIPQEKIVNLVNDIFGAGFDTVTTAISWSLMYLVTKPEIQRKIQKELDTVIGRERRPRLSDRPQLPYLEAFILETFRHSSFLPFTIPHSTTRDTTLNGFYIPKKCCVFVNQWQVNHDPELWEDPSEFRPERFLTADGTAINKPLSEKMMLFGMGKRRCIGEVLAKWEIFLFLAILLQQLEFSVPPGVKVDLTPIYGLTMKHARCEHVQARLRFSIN

Cytochrome P450 2D6 = Cytochrome P450 2D6 (Homo sapiens, UniProt P10635);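 further: CYP2D6 member of a cytochrome P450 panel assay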
Cytochrome P450 2D6, sequence (P10635 whole entry): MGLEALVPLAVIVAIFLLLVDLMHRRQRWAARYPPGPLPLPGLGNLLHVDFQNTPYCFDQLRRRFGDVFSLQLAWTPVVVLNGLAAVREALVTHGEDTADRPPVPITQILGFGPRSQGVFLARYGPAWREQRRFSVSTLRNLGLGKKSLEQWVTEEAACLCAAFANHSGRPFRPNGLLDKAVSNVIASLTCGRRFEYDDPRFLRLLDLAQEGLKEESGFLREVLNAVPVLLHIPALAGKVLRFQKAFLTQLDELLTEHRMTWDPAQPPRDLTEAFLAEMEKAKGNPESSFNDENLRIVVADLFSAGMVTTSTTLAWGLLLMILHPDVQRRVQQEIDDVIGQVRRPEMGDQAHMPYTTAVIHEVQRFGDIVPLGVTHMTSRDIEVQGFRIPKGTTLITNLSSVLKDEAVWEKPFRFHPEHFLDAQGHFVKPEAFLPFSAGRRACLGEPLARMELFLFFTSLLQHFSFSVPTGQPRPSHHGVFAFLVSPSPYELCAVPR

Cytochrome P450 2C9 = Cytochrome P450 2C9 (Homo sapiens, UniProt P11712)
Cytochrome P450 2C9, sequence (P11712 whole entry): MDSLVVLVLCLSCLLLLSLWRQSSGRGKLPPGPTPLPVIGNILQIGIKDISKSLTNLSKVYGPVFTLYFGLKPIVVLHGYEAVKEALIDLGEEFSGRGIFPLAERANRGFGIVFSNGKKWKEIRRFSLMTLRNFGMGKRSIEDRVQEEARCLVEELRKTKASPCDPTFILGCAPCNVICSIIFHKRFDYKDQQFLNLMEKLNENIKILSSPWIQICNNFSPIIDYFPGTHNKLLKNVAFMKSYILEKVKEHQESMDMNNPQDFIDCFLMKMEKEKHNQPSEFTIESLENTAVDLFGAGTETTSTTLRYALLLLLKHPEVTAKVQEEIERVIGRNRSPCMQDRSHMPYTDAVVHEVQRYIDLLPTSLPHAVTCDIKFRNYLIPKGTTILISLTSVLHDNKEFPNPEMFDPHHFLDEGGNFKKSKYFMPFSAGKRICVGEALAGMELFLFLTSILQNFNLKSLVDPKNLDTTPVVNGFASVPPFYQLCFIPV

[1] = target: T2, Heat shock factor protein 1 (Mus musculus, UniProt P38532); experiment: enhancement of HSF1-driven luciferase signal – cell-based, NIH3T3, luminescence, dose retest, confirmation (AID 435004); type: functional;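 further: stress induced by proteasome inhibitor MG132 added 30 min after compound; luciferase reporter driven by HSF1 response element in NIH3T3 cells; actives raise luminescence as potentiators of the MG132 stress response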
T2 sequence (P38532 whole entry): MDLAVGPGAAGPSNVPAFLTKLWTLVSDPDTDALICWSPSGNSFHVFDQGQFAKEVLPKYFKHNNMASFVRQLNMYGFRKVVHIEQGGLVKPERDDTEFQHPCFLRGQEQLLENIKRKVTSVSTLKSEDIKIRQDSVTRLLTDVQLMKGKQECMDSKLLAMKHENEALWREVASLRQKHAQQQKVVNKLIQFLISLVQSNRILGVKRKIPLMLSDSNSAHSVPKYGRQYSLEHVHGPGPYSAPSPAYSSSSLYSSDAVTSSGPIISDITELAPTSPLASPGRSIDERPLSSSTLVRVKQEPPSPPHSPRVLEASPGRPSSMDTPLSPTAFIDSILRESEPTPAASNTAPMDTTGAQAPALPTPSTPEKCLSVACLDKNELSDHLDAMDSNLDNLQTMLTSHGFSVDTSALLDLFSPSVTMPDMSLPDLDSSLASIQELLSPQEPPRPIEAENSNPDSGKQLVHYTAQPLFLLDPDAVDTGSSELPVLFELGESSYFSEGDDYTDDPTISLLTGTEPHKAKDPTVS

[2] = intracellular Trypanosoma cruzi inhibitors in host cells – cell-based, plate reader, cherry-pick samples, set 3, dose response (AID 651818); type: functional;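 further: compounds incubated with infected cells for about four days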
Cytochrome P450 3A4 = Cytochrome P450 3A4 (Homo sapiens, UniProt P08684);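 further: CYP3A4 tested as one member of a cytochrome P450 panel screen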
Cytochrome P450 3A4, sequence (P08684 whole entry): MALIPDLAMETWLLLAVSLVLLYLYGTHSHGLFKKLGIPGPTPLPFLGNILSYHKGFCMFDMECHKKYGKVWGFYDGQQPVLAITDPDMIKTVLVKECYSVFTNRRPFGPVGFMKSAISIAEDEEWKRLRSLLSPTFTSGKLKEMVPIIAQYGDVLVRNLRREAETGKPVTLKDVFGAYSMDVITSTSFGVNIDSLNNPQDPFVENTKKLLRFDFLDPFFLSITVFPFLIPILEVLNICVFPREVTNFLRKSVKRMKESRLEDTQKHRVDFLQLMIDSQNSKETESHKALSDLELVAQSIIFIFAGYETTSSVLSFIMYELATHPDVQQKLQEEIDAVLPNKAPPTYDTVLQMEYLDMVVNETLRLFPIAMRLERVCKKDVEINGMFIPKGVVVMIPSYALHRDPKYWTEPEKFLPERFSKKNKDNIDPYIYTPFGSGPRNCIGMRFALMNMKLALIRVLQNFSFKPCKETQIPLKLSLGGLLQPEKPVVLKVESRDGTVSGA

[3] = target: T3, Ubiquitin-conjugating enzyme E2 N (Homo sapiens, UniProt P61088); type: functional;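 further: Dose-response confirmation in a TR-FRET assay detecting UBC13-driven polyubiquitin chain formation, inhibition measured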
T3 sequence (P61088 whole entry): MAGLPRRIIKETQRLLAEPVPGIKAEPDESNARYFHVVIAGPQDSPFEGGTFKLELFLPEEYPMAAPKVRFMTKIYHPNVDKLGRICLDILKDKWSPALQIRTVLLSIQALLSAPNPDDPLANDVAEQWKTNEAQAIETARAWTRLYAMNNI

[4] = Trypanosoma cruzi growth suppression in host cells – NIH3T3 host cells, beta-gal luminescence, confirmation (AID 2044); type: functional, cell-based;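 further: intracellular parasites grown in NIH/3T3 mouse fibroblasts as host cells; luminescent beta-galactosidase reporter signal from transgenic T. cruzi replicating inside host cells; inhibitors lower the luminescence signal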
INS1 = experiment: INS-1E survival protection against cytokine death – cell-based, luminescence, retest, dose response (AID 449756); type: functional; conditions: Rattus norvegicus;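 further: cell death triggered by IL-1 beta plus TNF-alpha plus IFN-gamma mixture; protective hits raise ATP signal compared with cytokine alone wells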
[5] = target: T4, Replicative DNA helicase DnaB (Mycobacterium tuberculosis, UniProt P9WMR3); experiment: DnaB intein splicing inhibitors, dose response, biochemical, cell-free fluorescence (AID 449749); type: functional
T4 sequence (P9WMR3 whole entry): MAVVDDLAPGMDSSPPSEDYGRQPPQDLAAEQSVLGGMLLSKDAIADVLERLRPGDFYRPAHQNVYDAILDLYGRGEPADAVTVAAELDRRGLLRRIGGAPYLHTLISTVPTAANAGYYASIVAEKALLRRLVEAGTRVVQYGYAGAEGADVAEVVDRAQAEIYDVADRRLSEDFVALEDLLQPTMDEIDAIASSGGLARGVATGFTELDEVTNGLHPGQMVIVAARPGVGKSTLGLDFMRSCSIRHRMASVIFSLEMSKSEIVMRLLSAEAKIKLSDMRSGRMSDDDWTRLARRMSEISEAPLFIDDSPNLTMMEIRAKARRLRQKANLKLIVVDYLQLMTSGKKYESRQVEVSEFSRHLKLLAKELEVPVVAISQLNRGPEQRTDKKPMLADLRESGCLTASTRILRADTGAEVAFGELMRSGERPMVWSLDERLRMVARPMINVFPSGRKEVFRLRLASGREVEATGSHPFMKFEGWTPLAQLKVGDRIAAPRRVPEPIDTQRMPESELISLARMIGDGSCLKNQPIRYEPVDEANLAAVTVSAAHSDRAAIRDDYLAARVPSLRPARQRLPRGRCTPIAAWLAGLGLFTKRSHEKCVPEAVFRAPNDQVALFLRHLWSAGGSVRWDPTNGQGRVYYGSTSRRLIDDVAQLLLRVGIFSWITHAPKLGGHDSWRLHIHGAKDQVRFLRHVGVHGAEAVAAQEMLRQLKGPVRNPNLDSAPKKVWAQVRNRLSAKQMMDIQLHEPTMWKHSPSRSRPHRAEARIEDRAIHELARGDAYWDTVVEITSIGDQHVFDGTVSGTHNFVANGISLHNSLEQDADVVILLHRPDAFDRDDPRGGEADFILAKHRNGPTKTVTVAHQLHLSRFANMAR

[6] = NIH3T3 cell viability loss – ATP luminescence, mouse fibroblasts, counter-screen, dose response (AID 2010); type: functional, cell-based;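 further: cells exposed to compound for about 90 hours before reading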
[7] = Luminescence Cell-Based Dose Retest to Confirm Inhibitors of Cancer Stem Cells. [Related pubchem assays (depositor defined):AID2717, AID2721]; type: functional; conditions: Homo sapiens
Protein RecA = target: T5, Protein RecA (Mycobacterium tuberculosis, UniProt P9WHJ3); experiment: Fluorescence Cell-Free Homogeneous Dose Retest to Identify Inhibitors of RecA-Intein Splicing Activity. [Related pubchem assays (depositor defined):AID2097, AID2223, AID489010, AID492950]; type: functional
T5 sequence (P9WHJ3 whole entry): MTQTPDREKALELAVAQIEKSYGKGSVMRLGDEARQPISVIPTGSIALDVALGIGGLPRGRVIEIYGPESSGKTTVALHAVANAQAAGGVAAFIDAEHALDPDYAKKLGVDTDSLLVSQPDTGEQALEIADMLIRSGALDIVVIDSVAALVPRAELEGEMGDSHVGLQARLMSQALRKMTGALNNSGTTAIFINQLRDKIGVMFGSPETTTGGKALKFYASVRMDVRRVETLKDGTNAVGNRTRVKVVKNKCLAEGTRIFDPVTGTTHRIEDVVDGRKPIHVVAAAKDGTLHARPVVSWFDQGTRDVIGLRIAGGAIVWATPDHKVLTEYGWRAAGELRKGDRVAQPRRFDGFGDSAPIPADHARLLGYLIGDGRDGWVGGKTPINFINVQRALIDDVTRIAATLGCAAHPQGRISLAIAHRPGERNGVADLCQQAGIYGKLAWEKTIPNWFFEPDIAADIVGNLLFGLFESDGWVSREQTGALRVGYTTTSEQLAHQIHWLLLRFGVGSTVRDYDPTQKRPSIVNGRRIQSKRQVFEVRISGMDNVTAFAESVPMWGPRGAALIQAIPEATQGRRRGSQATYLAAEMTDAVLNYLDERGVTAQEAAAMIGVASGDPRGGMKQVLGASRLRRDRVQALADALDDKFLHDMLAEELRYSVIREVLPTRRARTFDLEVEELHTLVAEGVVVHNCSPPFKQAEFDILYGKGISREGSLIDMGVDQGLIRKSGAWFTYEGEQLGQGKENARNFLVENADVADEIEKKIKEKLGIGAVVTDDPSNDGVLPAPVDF

Large T antigen = Large T antigen (Simian virus 40, UniProt P03070); type: functional, Betapolyomavirus macacae;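 further: Confirmatory-stage PubChem screen for compounds that inhibit SV40 T antigen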
Large T antigen, sequence (P03070 whole entry): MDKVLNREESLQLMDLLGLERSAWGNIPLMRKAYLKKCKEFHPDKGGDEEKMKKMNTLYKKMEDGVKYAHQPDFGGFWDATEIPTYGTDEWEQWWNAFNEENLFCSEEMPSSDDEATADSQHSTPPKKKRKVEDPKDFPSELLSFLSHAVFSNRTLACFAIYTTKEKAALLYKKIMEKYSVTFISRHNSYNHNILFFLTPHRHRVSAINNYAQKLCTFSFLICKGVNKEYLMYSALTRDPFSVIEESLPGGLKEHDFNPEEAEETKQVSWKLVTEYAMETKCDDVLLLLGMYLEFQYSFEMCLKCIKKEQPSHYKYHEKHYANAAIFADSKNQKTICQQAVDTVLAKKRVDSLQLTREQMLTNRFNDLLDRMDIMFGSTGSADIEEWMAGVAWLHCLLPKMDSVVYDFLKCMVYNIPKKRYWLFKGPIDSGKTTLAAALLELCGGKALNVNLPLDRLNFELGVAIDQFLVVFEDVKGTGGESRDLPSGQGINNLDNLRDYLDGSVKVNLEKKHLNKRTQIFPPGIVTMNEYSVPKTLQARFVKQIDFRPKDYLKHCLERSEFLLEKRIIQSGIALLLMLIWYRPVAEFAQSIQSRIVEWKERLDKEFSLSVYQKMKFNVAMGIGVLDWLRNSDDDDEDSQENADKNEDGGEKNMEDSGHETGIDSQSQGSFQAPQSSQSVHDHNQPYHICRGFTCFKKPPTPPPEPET

Genome polyprotein = Genome polyprotein (dengue virus type 2, UniProt P29990); experiment: flavivirus cap methylation enzyme inhibition – biochemical, confirmation dose response, primary screen (AID 588689); type: functional
Genome polyprotein, sequence (P29990 2492-3391 limits assumed): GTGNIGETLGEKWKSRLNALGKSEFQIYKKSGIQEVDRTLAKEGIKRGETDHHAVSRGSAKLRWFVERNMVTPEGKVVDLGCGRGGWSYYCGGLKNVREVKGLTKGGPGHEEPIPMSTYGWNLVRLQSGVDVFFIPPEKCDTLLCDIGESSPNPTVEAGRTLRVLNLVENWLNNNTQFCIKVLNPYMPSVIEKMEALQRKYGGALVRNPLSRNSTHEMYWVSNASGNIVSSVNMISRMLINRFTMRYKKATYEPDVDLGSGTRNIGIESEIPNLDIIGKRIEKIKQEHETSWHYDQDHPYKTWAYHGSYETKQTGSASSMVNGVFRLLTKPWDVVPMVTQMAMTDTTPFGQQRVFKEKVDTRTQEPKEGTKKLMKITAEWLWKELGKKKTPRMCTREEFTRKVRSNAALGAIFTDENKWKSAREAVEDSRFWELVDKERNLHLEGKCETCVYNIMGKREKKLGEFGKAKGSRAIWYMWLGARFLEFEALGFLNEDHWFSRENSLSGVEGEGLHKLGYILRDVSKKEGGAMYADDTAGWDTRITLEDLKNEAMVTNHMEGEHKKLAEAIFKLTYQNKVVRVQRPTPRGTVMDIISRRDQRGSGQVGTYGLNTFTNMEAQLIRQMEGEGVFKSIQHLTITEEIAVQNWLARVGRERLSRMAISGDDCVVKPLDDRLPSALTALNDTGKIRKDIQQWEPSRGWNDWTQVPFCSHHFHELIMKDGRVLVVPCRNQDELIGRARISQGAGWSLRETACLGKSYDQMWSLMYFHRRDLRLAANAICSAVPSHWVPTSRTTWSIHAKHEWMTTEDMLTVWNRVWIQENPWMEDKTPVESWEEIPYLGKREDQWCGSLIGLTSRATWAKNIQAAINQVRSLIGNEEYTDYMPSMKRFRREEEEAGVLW

[8] = target: Induced myeloid leukemia cell differentiation protein Mcl-1 (Homo sapiens, UniProt Q07820); type: functional
Induced myeloid leukemia cell differentiation protein Mcl-1, sequence (Q07820 whole entry, the tested form may be a part): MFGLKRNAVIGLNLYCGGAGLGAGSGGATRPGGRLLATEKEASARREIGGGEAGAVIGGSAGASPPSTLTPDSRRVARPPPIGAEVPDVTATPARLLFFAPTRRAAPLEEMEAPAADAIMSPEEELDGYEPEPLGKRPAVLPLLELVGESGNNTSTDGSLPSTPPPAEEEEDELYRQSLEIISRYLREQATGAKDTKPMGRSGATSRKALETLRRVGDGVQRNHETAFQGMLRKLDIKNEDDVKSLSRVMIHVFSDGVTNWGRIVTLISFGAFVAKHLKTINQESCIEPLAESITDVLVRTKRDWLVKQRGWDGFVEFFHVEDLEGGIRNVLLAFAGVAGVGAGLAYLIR

[9] = target: T6, Carboxy-terminal domain RNA polymerase II polypeptide A small phosphatase 1 (Homo sapiens, UniProt Q9GZU7); experiment: CTDSP1 inhibitors, concentration-response, biochemical, absorbance readout, ultra-high-throughput screen actives (AID 540297); type: functional
T6 sequence (Q9GZU7 whole entry): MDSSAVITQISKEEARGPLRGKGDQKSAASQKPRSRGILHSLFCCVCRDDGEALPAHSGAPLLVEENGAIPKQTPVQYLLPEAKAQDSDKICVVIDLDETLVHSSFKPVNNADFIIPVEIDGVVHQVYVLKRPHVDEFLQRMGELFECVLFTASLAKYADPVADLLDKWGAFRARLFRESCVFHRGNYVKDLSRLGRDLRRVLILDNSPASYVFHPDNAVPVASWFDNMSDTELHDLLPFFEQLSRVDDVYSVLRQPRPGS

## CC1[C@@H]2CC=C3C4CCC5Cc6nc7c(nc6C[C@@]5(C)C4CC(=O)[C@]32CO[C@@]1(O)C(O)CC(C)(C)O)CC1CCC2C3=C[C@H]4O[C@@]5(O[C@@](C)(CO)C[C@@H]5O)C(C)[C@@]4(O)[C@]3(C)[C@@H](O)CC2[C@]1(C)C7 (stereo not given in full)
SN12K1
  GI50: < 0.00036 µM (active)
P388
  GI50: < 0.00036 µM (active)
P388/ADR
  GI50: 0.0105 µM (active)

## CCCCCCCCCCCCCCCCCC(=O)NC[C@@H](COP(=O)([O-])OCC[N+](C)(C)C)OCC
Cytochrome P450 1A2
  AC50: 39.8 µM (inconclusive)
Cytochrome P450 2D6
  AC50: 39.8 µM (inconclusive)
Cytochrome P450 2C9
  AC50: inconclusive

## CCOC(=S)SCC(=O)Nc1nc(C)c(C)s1
[1]
  EC50: 7.81 µM (active)

## Nc1n[nH]c(N)n1 [GUANAZOLE]
SN12K1
  GI50: 2830 µM (inactive)
P388
  GI50: 728 µM (inactive)
P388/ADR
  GI50: 1060 µM (inactive)

## O=C(C1CCC(CNS(=O)(=O)c2cccc3nsnc23)CC1)N1CCN(c2ccccn2)CC1 (stereo not given)
[1]
  EC50: > 260 µM (inactive)

## COCCO [2-METHOXYETHANOL]
SN12K1
  GI50: > 100 µM (inactive)
P388
  GI50: > 100 µM (inactive)
P388/ADR
  GI50: > 100 µM (inactive)

## NC(Cc1c[nH]c2ccccc12)C(=O)O (stereo not drawn) [DL-TRYPTOPHAN]
SN12K1
  GI50: > 300 µM (inactive)
P388
  GI50: 269 µM (inactive)
P388/ADR
  GI50: > 300 µM (inactive)

## CN(C)CCCOc1ccc(/C=N/NC(=O)CCCCCCC(=O)Nc2ccccc2O)cc1
[2]
  AC50: 1.29 µM (active)

## C[C@@H]1CCCCO[C@@H](CN(C)S(=O)(=O)c2cccs2)[C@@H](C)CN([C@H](C)CO)C(=O)c2cc(NC(=O)Nc3ccc(C(F)(F)F)cc3)ccc2O1
[2]
  AC50: 4.19 µM (active)

## Cc1ccccc1C(=O)NN(C)c1nc2ccccc2nc1C(F)(F)F
Cytochrome P450 3A4
  AC50: 7.08 µM (inconclusive)
Cytochrome P450 2C9
  AC50: inconclusive

## COc1ccc(N(C(=O)c2snc(C(N)=O)c2N)C(C(=O)NC2CCCCC2)c2ccc(C)o2)cc1 (stereo not given)
[3]
  IC50: > 20 µM (inactive)

## CCCCCc1cc(=O)oc2c(C(CCN3CCCC(C)C3)c3ccc(OC)cc3)c(OC)cc(OC)c12 (stereo not given)
[4]
  EC50: 1.6 µM (active)
INS1
  AC50: 7.46 µM (active)
[5]
  AC50: 4.78 µM (active)
[3]
  IC50: > 20 µM (inactive)
[6]
  EC50: 7.56 µM (active)
[7]
  AC50: 3.25 µM (active)
Protein RecA
  EC50: 12 µM (active)

## CC[C@](O)(C(=O)O)c1cc2n(c(=O)c1CO)Cc1cc3ccccc3nc1-2
SN12K1
  GI50: 0.209 µM (active)
P388
  GI50: 0.025 µM (active)
P388/ADR
  GI50: 0.03 µM (active)

## O=S1(=O)c2cccc3cccc(c23)N1Cc1nnc(-c2ccccc2Br)o1
[1]
  EC50: 34.6 µM (active)

## NC1CCCCC1
SN12K1
  GI50: 243 µM (inactive)
P388
  GI50: 92.9 µM (inactive)

## COc1ccccc1CNC(=O)c1csc(Cc2ccc(Cl)cc2)n1
[1]
  EC50: > 260 µM (inactive)

## CC(=O)[C@H]1CCC2[C@@H]3CC=C4C(O)C(OS(=O)(=O)O)CC[C@]4(C)C3CC[C@@]21C (stereo not given in full)
SN12K1
  GI50: > 100 µM (inactive)
P388
  GI50: > 100 µM (inactive)
P388/ADR
  GI50: > 100 µM (inactive)

## CCc1ccccc1N1CCN(C(=O)c2cc(OC)c(OC)c(OC)c2)CC1
SN12K1
  GI50: 0.0614 µM (active)
P388
  GI50: 0.0395 µM (active)
P388/ADR
  GI50: 0.119 µM (active)

## CCN(Cc1ccccc1)C(=O)C1CCN(C/C(C)=C/c2ccccc2)CC1
[1]
  EC50: > 260 µM (inactive)

## COc1ccc(NC(=O)CSc2nc3c(sc4ccccc43)c(=O)n2CCCN2CCCC2)cc1
[3]
  IC50: > 20 µM (inactive)

## O=C(COc1cccnc1[N+](=O)[O-])c1ccc(Cl)s1
Large T antigen
  IC50: 67.7 µM (active)
Genome polyprotein
  IC50: > 100 µM (active)
[8]
  IC50: 3.78 µM (active)

## COc1ccc(/C=N/NC(=O)c2ccc(O)cc2O)cc1CSc1ccccn1
[9]
  IC50: 5.92 µM (active)
[8]
  IC50: 3.42 µM (active)

## CCC(CC)COC(=O)C1=C(C)NC(=O)NC1c1cc(OC)ccc1OC (stereo not given)
[1]
  EC50: > 260 µM (inactive)

Source: ChEMBL document CHEMBL1201862, “PubChem BioAssay data set” (2004)
